Source: ChEMBL document CHEMBL1158254, “HIV inhibitory natural products. 26. Quinoline alkaloids from Euodia roxburghiana” (J Nat Prod, 1996)
The source made the active and inactive calls. The rule behind the calls is not given here.

Experiments:
[1] = target: Human immunodeficiency virus type 1 reverse transcriptase (Human immunodeficiency virus 1, UniProt Q72547); assay: Inhibition of HIV1 reverse transcriptase
[2] = test system: Human immunodeficiency virus 1; assay: Antiviral activity against HIV1 infected in CEM-SS cells assessed as virus-induced cytopathic effect by XTT assay; type: functional, organism-based; settings: for IC50: Human immunodeficiency virus 1, CEM-SS

Row | IC50 [1] [µM] | SMILES | IC50 [2] [µM] | Activity [2]
1 | 12 | C=CC(C)(C)C1(CC=C(C)C)C(=O)Nc2ccccc2C1=O (configuration not stated) [BUCHAPINE] | 29 | –
2 | – | COc1c2ccc(OCC[C@H](C)O)cc2nc2occc12 | – | inactive
3 | – | COC(=O)/C(C)=C/COc1ccc2c(OC)c3ccoc3nc2c1 | – | inactive
4 | – | COC(=O)[C@@H](C)CCOc1ccc2c(OC)c3ccoc3nc2c1 | – | inactive
5 | 8 | CC(C)=CCOc1c(CC=C(C)C)c(O)nc2ccccc12 | 26.9 | –
